This note sets out measurements from US20260364072A1, “METHODS FOR PROMOTING EXPANSION OF HUMAN CD34+ CELLS IN VIVO AND FOR PROMOTING NEURAL REGENERATION” (THE REGENTS OF THE UNIVERSITY OF CALIFORNIA, priority 2023, published 2026).

Assay [1] relates to splicing reporter in KG-1a AML cells. Put plainly: Lentiviral dual fluorescence (RFP/GFP) splicing reporter in KG-1a cells. The conditions noted are these: 24 hr. The format is cell-based, human. The text has this:
(FIG. 29A) Quantification of cell viability (left panel) and splicing modulation (RFP/GFP ratios, right panel) by flow cytometry analyses of the human AML cell line (KG-1a) stably transduced with a lentiviral dual-fluorescence splicing reporter vector and treated with increasing concentrations of Rebecsinib.
For generation of stably transduced splicing reporter cell lines, a previously described splicing reporter construct^31 was cloned into a lentiviral vector backbone.^52 KG-1a cells were transduced with the dual-fluorescent lentiviral splicing reporter vector, treated with various concentrations of Rebecsinib (3-fold serial dilutions from 3 μM to 4 nM) for 24 hr, washed followed by DAPI staining, and analyzed by flow cytometry for cell viability and RFP/GFP fluorescence intensity. Results were from duplicate wells of each condition. Viability of cells treated with DMSO (0.5% final concentration) was set as 100%. Nonlinear regression curve fit analysis was carried out using Prism software (GraphPad) to determine ECso values for viability and mean fluorescence intensity (MFI) of RFP and GFP.

The subject of assay [2] is ADAR1, CD44v3, MCL1-L. Put plainly: LSC-associated transcripts and ADAR1 activity after treatment or ADAR1 shRNA knockdown. The format is cell-based, human. The conditions noted are these: phenocopied ADAR1 shRNA knockdown. The text has this: For lentivirus-mediated knockdown of human ADAR1 in ADAR1 activation and RNA editing biomarker studies of the nanoluc-GFP reporter and endogenous transcripts, human leukemia cells were stably transduced with the lentiviral shRNA vectors targeting ADAR1 (shADAR1) or scrambled control (shCtrl) to ablate endogenous ADAR1 expression. The shRNA plasmids targeting ADAR1 (shADAR1) as well as the scrambled control (shCtrl) were purchased from VectorBuilder (Chicago, IL) (shCtrl: […] (SEQ ID NO:3) and shADAR1: […]) (SEQ ID NO:4). […] Viral titers were assessed by qRT-PCR and transduction efficiency was tested in 293T cells. […]
For quantitative analysis of splice isoform expression, RNA editing rates, and whole gene expression by qRT-PCR, cells or tissue fragments were harvested in RNA lysis buffer and total RNA was extracted using RNeasy mini or micro extraction kits (QIAGEN, Germantown, MD) following the manufacturer's protocol including a DNase incubation step to digest any trace genomic DNA present. Levels of ADAR1 variants and LSC-specific transcripts were quantified by qRT-PCR as previously described.^14 RNA-editing site-specific qRT-PCR (RESSqPCR) was performed for variants in AZIN1 transcripts.^53 Additional species-specific primers were also designed to quantify intron retention rates in cells treated with Rebecsinib as a biomarker of response to RNA splicing modulation. […]

Assay [3] has as its system SF3B3. Put plainly: SF3B3 splice biomarker analysis in human CD45+ cells from normal HSPC engrafted mice. Type of assay: in vivo. The text has this:
After completion of treatment and engraftment analyses of in vivo normal HSPC assays, total human hematopoietic cells (CD45^+) were selected for splice biomarker analyses to determine sensitivity of normal human hematopoietic cells to Rebecsinib compared with sAML LSC.
For quantitative analysis of splice isoform expression, RNA editing rates, and whole gene expression by qRT-PCR, cells or tissue fragments were harvested in RNA lysis buffer and total RNA was extracted using RNeasy mini or micro extraction kits (QIAGEN, Germantown, MD) following the manufacturer's protocol including a DNase incubation step to digest any trace genomic DNA present. Levels of ADAR1 variants and LSC-specific transcripts were quantified by qRT-PCR as previously described.^14 RNA-editing site-specific qRT-PCR (RESSqPCR) was performed for variants in AZIN1 transcripts.^53 Additional species-specific primers were also designed to quantify intron retention rates in cells treated with Rebecsinib as a biomarker of response to RNA splicing modulation. Specifically, for the two-step SYBR-green based assays, as previously described,^7,14,53 100-1000 ng of RNA were subjected to cDNA synthesis using the SUPERSCRIPT III™ (ThermoFisher Scientific) kit followed by qRT-PCR using SYBR GreenER (ThermoFisher Scientific) master mix according to the manufacturer's recommended procedures. qRT-PCR was performed using SYBR GREENER SUPER MIX™ (Life Technologies) on BioRad iQ5™, C1000 TOUCH™, or BioRad CFX384™ instruments. Human splice isoform-specific, RNA editing site-specific qPCR (RESSqPCR)^53. Primer sets that have not been previously published were designed and tested for efficiency followed by analyses in samples exposed to Rebecsinib, with species-specific HPRT primers used as controls. Samples with Ct<35 for the species-specific reference gene, HPRT, were included in analyses. Relative mRNA expression values were calculated using the 2^−ΔCT method, with normalization to untreated or vehicle-treated controls.^54 […]

Assay [4] has as its system RNA editing. Put plainly: Whole transcriptome RNA editing analysis of CD34+ cells from sAML50261 engrafted mice. The conditions noted are these: mice treated with 5 or 10 mg/kg. Type of assay: in vivo, human cells in mice. The procedure:
FIG. 30E illustrates a whole transcriptome-based RNA editing analyses of previously-described RNA-seq data^14 generated from CD34^+ cells isolated from the spleens of sAML50261 engrafted mice treated with Rebecsinib or vehicle;
For RNA editing analyses of whole transcriptome sequencing data, previous datasets were utilized from CD34^+ cells isolated from the spleens of sAML50261-engrafted mice treated once weekly with Rebecsinib in a dose-response assay (5 or 10 mg/kg),^14 along with CD34^+ cells harvested from mice that were serially transplanted with CD34+ cells from sAML50261-engrafted mice that had been treated twice weekly with Rebecsinib at 10 mg/kg (no further treatment was delivered to serial transplant recipients). Due to limiting number of cells remaining after treatment, cells were pooled from n=4 to 5 mice per condition for sequencing. RNA editing analysis was performed as previously described.^5

With `CC[C@H](OC)[C@@H](C)[C@H]1O[C@@H]1[C@@H](O)[C@H](C)/C=C/C=C(\C)[C@H]1OC(=O)C[C@H](O)CC[C@@](C)(O)[C@@H](OC(C)=O)/C=C/[C@@H]1C` [Rebecsinib], the “RFP to GFP reporter expression” value in assay [1] is “increased RFP to GFP reporter expression in a dose-dependent manner”. Besides, in assay [2], the ADAR1 activity result is listed as “repression of ADAR1 activity”; the “expression of LSC-associated transcripts, such as CD44v3 and MCL1-L” value was “reduced expression of LSC-associated transcripts”. Besides, in assay [3] (normal human CD45+ cells), the “SF3B3 intron retention in bone marrow” value is recorded as “no changes in SF3B3 intron retention” and the “SF3B3 intron retention in spleen” value is “trend toward changes in the spleen that were not statistically significant”. In assay [3] (therapeutic index, humanized mouse models), the “sensitivity of sAML LSC to splicing modulation versus normal HSPCs” value is “sAML LSC are significantly more sensitive to splicing modulation than normal HSPCs”. Moreover, the RNA editing activity result in assay [4] was “global downregulation of RNA editing activity that occurred in a dose-responsive manner”.
